Tests used:
ASK1/MAP3K5 = target: T1, ASK1/MAP3K5 (Homo sapiens, UniProt Q99683); test: ASK1/MAP3K5 kinase assay by Reaction Biology Corp. (headed ASK1 TR-FRET Assay); type: biochemical; details: 20 μM myelin basic protein, 10 μM ATP
T1 sequence (Q99683 1-1374): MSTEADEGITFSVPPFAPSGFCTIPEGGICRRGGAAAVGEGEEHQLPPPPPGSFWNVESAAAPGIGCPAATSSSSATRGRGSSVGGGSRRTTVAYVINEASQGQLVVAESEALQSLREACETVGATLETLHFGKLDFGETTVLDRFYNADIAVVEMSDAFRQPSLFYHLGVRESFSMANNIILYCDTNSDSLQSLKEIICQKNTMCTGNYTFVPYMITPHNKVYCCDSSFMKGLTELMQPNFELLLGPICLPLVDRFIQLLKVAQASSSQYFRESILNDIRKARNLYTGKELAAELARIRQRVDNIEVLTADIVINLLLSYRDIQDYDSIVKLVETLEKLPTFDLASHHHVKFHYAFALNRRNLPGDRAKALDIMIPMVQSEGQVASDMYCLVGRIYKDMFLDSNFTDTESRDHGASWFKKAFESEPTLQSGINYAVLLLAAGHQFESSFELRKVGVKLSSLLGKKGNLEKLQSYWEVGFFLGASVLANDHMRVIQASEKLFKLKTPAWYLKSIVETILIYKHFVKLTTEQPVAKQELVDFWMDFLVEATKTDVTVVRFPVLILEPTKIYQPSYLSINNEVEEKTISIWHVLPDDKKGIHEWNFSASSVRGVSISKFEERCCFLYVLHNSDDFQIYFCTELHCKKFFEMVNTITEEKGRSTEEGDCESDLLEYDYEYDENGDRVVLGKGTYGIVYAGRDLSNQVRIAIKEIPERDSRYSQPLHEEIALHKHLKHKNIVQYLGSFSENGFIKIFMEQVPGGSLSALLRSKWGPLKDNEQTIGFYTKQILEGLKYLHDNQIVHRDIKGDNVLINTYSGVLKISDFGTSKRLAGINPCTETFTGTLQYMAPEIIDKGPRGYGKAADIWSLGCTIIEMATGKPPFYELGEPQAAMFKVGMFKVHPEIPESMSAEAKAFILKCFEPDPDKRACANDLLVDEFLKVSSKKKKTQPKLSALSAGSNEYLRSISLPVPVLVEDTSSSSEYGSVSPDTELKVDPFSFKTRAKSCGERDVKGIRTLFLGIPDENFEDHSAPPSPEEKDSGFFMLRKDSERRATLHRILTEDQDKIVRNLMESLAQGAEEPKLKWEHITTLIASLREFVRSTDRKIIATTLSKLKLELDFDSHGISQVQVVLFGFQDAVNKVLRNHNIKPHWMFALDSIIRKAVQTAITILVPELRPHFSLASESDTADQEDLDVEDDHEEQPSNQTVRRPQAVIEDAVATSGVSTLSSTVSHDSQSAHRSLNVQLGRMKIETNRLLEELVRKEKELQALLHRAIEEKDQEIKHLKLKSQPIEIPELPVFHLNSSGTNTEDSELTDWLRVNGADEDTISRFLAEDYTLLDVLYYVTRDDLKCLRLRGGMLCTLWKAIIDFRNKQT
Description: Example 111: Brief Description of ASK1 TR-FRET Assay The protein kinase inhibitory activity of the compounds described herein were tested using the ASK1/MAP3K5 assay by Reaction Biology Corp. (Malvern, PA). The assay procedure follows (and is also available on the Reaction Biology Corp. website). Base Reaction Buffer: 20 mM Hepes (pH 7.5), 10 mM MgCl2, 1 mM EGTA, 0.02% Brij35, 0.02 mg/mL BSA, 0.1 mM Na3VO4, 2 mM DTT, 1% DMSO; Substrate: 20 μM of myelin basic protein (MBP) and 10 μM ATP; Protein kinase: ASK1/MAP3K5. Reaction Procedure: • 1. Prepare indicated substrate in freshly prepared Base Reaction Buffer. • 2. Deliver any required cofactors to the substrate solution. • 3. Deliver indicated kinase into the substrate solution and gently mix. • 4. Deliver compounds in DMSO into the kinase reaction mixture by Acoustic; technology (Echo550; nanoliter range), incubate for 20 minutes at room temperature. • 5. Deliver ^33P-ATP (specific activity 10 μCi/μL) into the reaction mixture to initiate the reaction. • 6. Incubate kinase reaction for 2 hours at room temperature. • 7. Reactions are spotted onto P81 ion exchange paper. • 8. Detect kinase activity by filter-binding method.

[1] = target: T2, ASK1 T838 auto phosphorylation (Homo sapiens, UniProt Q99683); test: ASK1 (AUTO PHOS T838) assay, MSD format, in HEK-293T cells transfected with ASK1-V5; type: cell-based; details: ASK1 T838 auto phosphorylation in HEK-293T cells, 1 hr compound incubation; class symbols
T2 sequence (Q99683 1-1374): T1 sequence (Q99683 1-1374)
Description: Example 112: Brief Description of ASK1(AUTO PHOS T838) Assay ASK1 T838 auto phosphorylation was measured in HEK-293T cells using MSD assay format. HEK 293T cells were seeded in 15 cm plates at a density of 18 million cells and 20 mL DMEM with 10% FBS, Pen/Strep media. The plates were incubated at 37° C. overnight. Media on plates was changed to OPTI-MEM, serum free media and cells were transfected with 9 μg of ASK1-V5 tagged full length plasmid using Lipofectamine 2000 (Invitrogen) and the plates were incubated at 37° C. overnight. Cells were trypsinized, counted on Nexcellometer and plated into 96 well tissue culture plates with 100,000 cells/well and 200 μL media. Cells were incubated for 4 hr at 37° C. then ASK1 compounds were added using a HP 300e. Compounds were tested at 20 μM with 3 fold, 10 point dilution points then incubated for 1 hr at 37° C. A lysis buffer (Cell Signaling) was prepared with protease and phosphatase inhibitor and maintained at 4° C. until use. Media from cells was discarded and 120 μL of cold lysis buffer was added to the cells, the plate was shaken 4° C. for 1 hr. Lysate was mixed using Apricot liquid handler; aspirating up and down 16 times at high speed using 50 μL volume. […] Plates were then incubated on a plate shaker overnight at 4° C. Plates were washed 3× with MSD wash buffer and 50 μL of rabbit anti-pASK1 T838 antibody was added to the wells and incubated for 2 hr at room temperature on a plate shaker. Plates were then washed and 50 μL of goat anti-rabbit sulfa-tag (1:500 dilution) was added to wells, and incubated for 1 hr at room temperature on a plate shaker. […] Plates were immediately read on a MSD Instrument Reader where chemoluminescence signal was measured. Data was analyzed using Graph Pad or Genedata, the data was normalized and plotted, % activity versus log of compound concentration. The IC50 values were obtained from a 4 parameter fit. The compounds described herein were tested for in the above cell-based assay.

Row | Compound | IC50 (ASK1/MAP3K5; class symbols) | IC50 [1] | IC50 (ASK1/MAP3K5; class given in words)
1 | COc1nn(-c2cccnn2)cc1C(=O)Nc1cccc(-c2nncn2[C@@H](C)C(F)(F)F)n1 [Example 85, (S)-3-Methoxy-1-(pyridazin-3-yl)-N-(6-(4-(1,1,1-trifluoropropan-2-yl)-4H-1,2,4-triazol-3-yl)pyridin-2-yl)-1H-pyrazole-4-carboxamide] | ≤ 0.1 µM | ≤ 1 µM | –
2 | CCOc1nn(C)cc1C(=O)Nc1cccc(-c2nncn2C(C)C)n1 [Example 3, 3-Ethoxy-N-(6-(4-isopropyl-4H-1,2,4-triazol-3-yl)pyridin-2-yl)-1-methyl-1H-pyrazole-4-carboxamide] | ≤ 0.1 µM | ≤ 1 µM | –
3 | COc1nn(-c2cccnn2)cc1C(=O)Nc1cccc(-c2nncn2[C@H](C)C(F)(F)F)n1 [Example 86, (R)-3-Methoxy-1-(pyridazin-3-yl)-N-(6-(4-(1,1,1-trifluoropropan-2-yl)-4H-1,2,4-triazol-3-yl)pyridin-2-yl)-1H-pyrazole-4-carboxamide] | 0.1 to 1 µM | 1 to 10 µM | –
4 | COc1nn(C)cc1C(=O)Nc1cccc(-c2nncn2[C@H](C)C(F)F)n1 (single isomer, unassigned) [Example 28] | ≤ 0.1 µM | ≤ 1 µM | –
5 | COc1nn(CCN(C)C)cc1C(=O)Nc1cccc(-c2nncn2C(C)C)n1 [Example 45, 1-(2-(Dimethylamino)ethyl)-N-(6-(4-isopropyl-4H-1,2,4-triazol-3-yl)pyridin-2-yl)-3-methoxy-1H-pyrazole-4-carboxamide] | ≤ 0.1 µM | ≤ 1 µM | –
6 | CC(C)n1cnnc1-c1cccc(NC(=O)c2cn(-c3cncc(Br)c3)nc2C(F)F)n1 [Example 74, 1-(5-Bromopyridin-3-yl)-3-(difluoromethyl)-N-(6-(4-isopropyl-4H-1,2,4-triazol-3-yl)pyridin-2-yl)-1H-pyrazole-4-carboxamide] | ≤ 0.1 µM | ≤ 1 µM | –
7 | CC(C)n1cnnc1-c1cccc(NC(=O)c2cn(-c3cncc(C#N)c3)nc2C(F)F)n1 [Example 76, 1-(5-Cyanopyridin-3-yl)-3-(difluoromethyl)-N-(6-(4-isopropyl-4H-1,2,4-triazol-3-yl)pyridin-2-yl)-1H-pyrazole-4-carboxamide] | ≤ 0.1 µM | ≤ 1 µM | –
8 | COc1nn(C)cc1C(=O)Nc1cccc(-c2nncn2C2COC2)n1 [Example 107, 3-Methoxy-1-methyl-N-(6-(4-(oxetan-3-yl)-4H-1,2,4-triazol-3-yl)pyridin-2-yl)-1H-pyrazole-4-carboxamide] | – | > 10 µM | ≥ 10 µM
9 | C[C@H](n1cnnc1-c1cccc(NC(=O)c2cn(-c3cnccn3)nc2C(F)F)n1)C(F)(F)F [Example 89, (S)-3-(Difluoromethyl)-1-(pyrazin-2-yl)-N-(6-(4-(1,1,1-trifluoropropan-2-yl)-4H-1,2,4-triazol-3-yl)pyridin-2-yl)-1H-pyrazole-4-carboxamide] | ≤ 0.1 µM | ≤ 1 µM | –
10 | COc1nn(CC(C)C)cc1C(=O)Nc1cccc(-c2nncn2C(C)C)n1 [Example 42, 1-Isobutyl-N-(6-(4-isopropyl-4H-1,2,4-triazol-3-yl)pyridin-2-yl)-3-methoxy-1H-pyrazole-4-carboxamide] | ≤ 0.1 µM | ≤ 1 µM | –
11 | Cc1cncc(-n2cc(C(=O)Nc3cccc(-c4nncn4C(C)C)n3)c(C(F)F)n2)c1 [Example 75, 3-(Difluoromethyl)-N-(6-(4-isopropyl-4H-1,2,4-triazol-3-yl)pyridin-2-yl)-1-(5-methylpyridin-3-yl)-1H-pyrazole-4-carboxamide] | ≤ 0.1 µM | ≤ 1 µM | –
12 | COc1nn(CC(F)(F)F)cc1C(=O)Nc1cccc(-c2cncn2C(C)C)n1 [Example 106, N-(6-(1-Isopropyl-1H-imidazol-5-yl)pyridin-2-yl)-3-methoxy-1-(2,2,2-trifluoroethyl)-1H-pyrazole-4-carboxamide] | ≤ 0.1 µM | ≤ 1 µM | –
13 | COc1nn(CC2CC2)cc1C(=O)Nc1cccc(-c2nncn2[C@@H](C)C(F)(F)F)n1 [Example 48, (S)-1-(Cyclopropylmethyl)-3-methoxy-N-(6-(4-(1,1,1-trifluoropropan-2-yl)-4H-1,2,4-triazol-3-yl)pyridin-2-yl)-1H-pyrazole-4-carboxamide] | ≤ 0.1 µM | ≤ 1 µM | –
14 | CCOc1nn(C)cc1C(=O)Nc1cccc(-c2nncn2[C@@H](C)C(F)(F)F)n1 [Example 16, (S)-3-Ethoxy-1-methyl-N-(6-(4-(1,1,1-trifluoropropan-2-yl)-4H-1,2,4-triazol-3-yl)pyridin-2-yl)-1H-pyrazole-4-carboxamide] | ≤ 0.1 µM | ≤ 1 µM | –
15 | COc1nn(CC2CC2)cc1C(=O)Nc1cccc(-c2cncn2C(C)C)n1 [Example 91, 1-(Cyclopropylmethyl)-N-(6-(1-isopropyl-1H-imidazol-5-yl)pyridin-2-yl)-3-methoxy-1H-pyrazole-4-carboxamide] | – | ≤ 1 µM | –
16 | CCCn1cc(C(=O)Nc2cccc(-c3nncn3C(C)C)n2)c(OC)n1 [Example 58, N-(6-(4-Isopropyl-4H-1,2,4-triazol-3-yl)pyridin-2-yl)-3-methoxy-1-propyl-1H-pyrazole-4-carboxamide] | – | ≤ 1 µM | –
17 | COc1nn(-c2ccccc2)cc1C(=O)Nc1cccc(-c2nncn2C(C)C)n1 [Example 60, N-(6-(4-Isopropyl-4H-1,2,4-triazol-3-yl)pyridin-2-yl)-3-methoxy-1-phenyl-1H-pyrazole-4-carboxamide] | – | ≤ 1 µM | –
18 | COc1nn(C)cc1C(=O)Nc1cccc(-c2nncn2C(C)C(F)(F)F)n1 (centres unmarked) [Example 10, 3-Methoxy-1-methyl-N-(6-(4-(1,1,1-trifluoropropan-2-yl)-4H-1,2,4-triazol-3-yl)pyridin-2-yl)-1H-pyrazole-4-carboxamide] | – | ≤ 1 µM | –
